Experimental data: patent US6403554B2, “Polyunsaturated fatty acid derivatives and their use” (Ardenia Investments Ltd., priority 1998, dated 2002)

How the values were obtained:
[1] = test system: antibody-forming cells (AFC) in the spleen; assay: Humoral immune response: counting antibody-forming cells (AFC) in the spleen according to Cunningham, mice immunised with sheep erythrocytes; assay type: in vivo, C57B1/6 mice; settings: for Amount of antibody-forming cells per 10^6 spleen cells, M ± SEM (relative amount of AFC) / Amount of antibody-forming cells per spleen, M ± SEM (total AFC amount): 5-th day after injection, female mice; for Effect, % on AFC per 10^6 spleen cells / Effect, % on AFC per spleen: versus animals immunised only with sheep erythrocytes; for Dose at which immunostimulating effect in vivo is displayed (micelle form): compound alone
Protocol: (§1) 0.15 ml of compound 10 was administered intravenously to 6 mice females of CS7B1/6 line (weight 18-22 g) in doses of 45.5, 91 and 136.5 μg of compound 10 per capita for each testing group according to the dose. Simultaneously, a suspension of 5·10^7 sheep erythrocytes was injected intraperitoneally (0.2 ml per capita). Mice in the control group were injected intravenously with equal volume of saline. The effects of compound 10 on humoral immune response were analyzed both by counting the quantity of AFC in the spleen according to Cunningham (per 10^6 spleen cells and per spleen) and estimating the titers of hemagglutining antibodies in serum of the animals (Cunningham A. J., Nature, 1965, Vol.207, No 5001. P.1106-1107), while the titers of hemagglutinating antibodies were evaluated according to litterature (Evans J. et al., Cell, 1974; Vol 3., p.153-158, Feizi T., Menger E., Transfusion, 1970, Vol. 10, p.33-35,).
(§2) 0.15 ml of compound 11 was administered intravenously to 6 female mice of the C57B1/6 line (weight 18-22 g) in doses of 45.5, 91 and 136.5 μg of compound 11 per capita for each testing group according to the dose. Simultaneously, a suspension of 5·10^7 sheep erytrocytes was injected intraperitoneally (0.2 ml per capita). Mice in the control group were injected intravenously with an equal volume of saline. The effects of compound 11 on humoral immune response was analysed both by counting the quantity of AFC in the spleen according to Cunningham (per 10^6 spleen cells and per spleen) and estimating the titers of hemagglutining antibodies in serum of the animals.
as §2, with “12” for “11”, “erythrocytes” for “erytrocytes”, “analyzed” for “analysed”
as §2, with “compound 8” for “compound 11”, “sheep erythrocytes” for “sheep erytrocytes”, “Mice of” for “Mice in”, “response were analyzed” for “response was analysed”
as §2, with “compound 3” for “compound 11”, “Mice of” for “Mice in”, “with” for “with an”, “response were” for “response was”
(§3) 0.15 ml of compound 4 was administered intravenously to 6 female mice of the C57B1/6 line (weight 18-22 g) in a doses of 45.5, 91 and 136.5 μg of compound 4 per capita for each testing group according to the dose. Simultaneously, a suspension of 5·10^7 sheep erythrocytes was injected intraperitoneally (0.2 ml per capita). […]

[2] = test system: hemagglutinating antibodies in serum; assay: Humoral immune response: titers of hemagglutinating antibodies in serum; assay type: in vivo, C57B1/6 mice; settings: for Amount of hemagglutinins: serum, female mice; for Effect, % on hemagglutinins: versus control
Protocol: as §1, §2
as §2, with “12” for “11”, “erythrocytes” for “erytrocytes”, “analyzed” for “analysed”
as §2, with “compound 8” for “compound 11”, “sheep erythrocytes” for “sheep erytrocytes”, “Mice of” for “Mice in”, “response were analyzed” for “response was analysed”
as §2, with “compound 3” for “compound 11”, “Mice of” for “Mice in”, “with” for “with an”, “response were” for “response was”
as §3

Compound: CC1=C(/C=C/C(C)=C/C=C/C(C)=C/C(=O)N[C@@H](Cc2ccc(OP(=O)(O)O)cc2)C(=O)O)C(C)(C)CCC1 (stereo in doubt) [Compound 4, N-(all-trans-retinoyl)-o-phospho-L-tyrosine]
- Amount of antibody-forming cells per 10^6 spleen cells, M ± SEM (relative amount of AFC) ([1]; 45.5 μg/mouse i.v.): 405.0±47.9
- Amount of antibody-forming cells per spleen, M ± SEM (total AFC amount) ([1]; 45.5 μg/mouse i.v.): 55.0±6.7 × 10^3
- Effect, % on AFC per 10^6 spleen cells ([1]; 45.5 μg/mouse i.v.): −0.3 p >0.05%
- Effect, % on AFC per spleen ([1]; 45.5 μg/mouse i.v.): −8.9 p > 0.05%
- Amount of antibody-forming cells per 10^6 spleen cells, M ± SEM (relative amount of AFC) ([1]; 91 μg/mouse i.v.): 692.9±44.8
- Amount of antibody-forming cells per spleen, M ± SEM (total AFC amount) ([1]; 91 μg/mouse i.v.): 87.6±4.3 × 10^3
- Amount of antibody-forming cells per 10^6 spleen cells, M ± SEM (relative amount of AFC) ([1]; 136.5 μg/mouse i.v.): 1354.3±99.9
- Amount of antibody-forming cells per spleen, M ± SEM (total AFC amount) ([1]; 136.5 μg/mouse i.v.): 138.9±10.0 × 10^3
- Dose at which immunostimulating effect in vivo is displayed (micelle form) [1]: 91 μg/mouse
- Immunogenic activity ([1]; dose of 45.5 μg/mouse): no immunogenic activity
- immunostimulating action ([1]; doses of 91 and 136.5 μg/mouse): high immunostimulating action
- Amount of hemagglutinins ([2]; 45.5 μg/mouse i.v.): 6.0 ± 0.3 Log2 T
- Effect, % on hemagglutinins ([2]; 45.5 μg/mouse i.v.): −3.2 p > 0.05%
- Amount of hemagglutinins ([2]; 91 μg/mouse i.v.): 6.5 ± 0.4 Log2 T
- Effect, % on hemagglutinins ([2]; 91 μg/mouse i.v.): +4.8 p > 0.05%
- Amount of hemagglutinins ([2]; 136.5 μg/mouse i.v.): 7.5±0.2 Log2 T

Compound: CC1=C(/C=C/C(C)=C/C=C/C(C)=C\C(=O)NCCOP(=O)(O)O)C(C)(C)CCC1 [Compound 1a, N-(13-cis-retinoyl)-o-phospho-2-aminoethanol]
- Dose at which immunostimulating effect in vivo is displayed (micelle form) [1]: 91 μg/mouse
- Amount of hemagglutinins ([2]; 45.5 μg/mouse i.v.): 7.6 ± 0.3 Log2 T
- Effect, % on hemagglutinins ([2]; 45.5 μg/mouse i.v.): −1,3 p > 0.05%
- Amount of hemagglutinins ([2]; 91 μg/mouse i.v.): 7.6 ± 0.2 Log2 T
- Effect, % on hemagglutinins ([2]; 91 μg/mouse i.v.): −1,3 p > 0.05%
- Amount of hemagglutinins ([2]; 136.5 μg/mouse i.v.): 8.2 ± 0.4 Log2 T
- Effect, % on hemagglutinins ([2]; 136.5 μg/mouse i.v.): +6,5 p > 0.05%

Compound: CC/C=C\C/C=C\C/C=C\C/C=C\C/C=C\C/C=C\CCC(=O)N[C@@H](Cc1ccc(OP(=O)(O)O)cc1)C(=O)O [Compound 12, N-docosahexaenoyl-o-phospho-L-tyrosine]
- Amount of antibody-forming cells per 10^6 spleen cells, M ± SEM (relative amount of AFC) ([1]; 45.5 μg/mouse i.v.): 263.8±23.6
- Amount of antibody-forming cells per spleen, M ± SEM (total AFC amount) ([1]; 45.5 μg/mouse i.v.): 31.8±2.8 × 10^3
- Effect, % on AFC per 10^6 spleen cells ([1]; 45.5 μg/mouse i.v.): −9.4 p >0.05%
- Effect, % on AFC per spleen ([1]; 45.5 μg/mouse i.v.): −9.1 p >0.05%
- Amount of antibody-forming cells per 10^6 spleen cells, M ± SEM (relative amount of AFC) ([1]; 91 μg/mouse i.v.): 307.8±30.9
- Amount of antibody-forming cells per spleen, M ± SEM (total AFC amount) ([1]; 91 μg/mouse i.v.): 40.2±2.7 × 10^3
- Effect, % on AFC per 10^6 spleen cells ([1]; 91 μg/mouse i.v.): +5.7 p > 0.05%
- Effect, % on AFC per spleen ([1]; 91 μg/mouse i.v.): +14.9 p > 0.05%
- Amount of antibody-forming cells per 10^6 spleen cells, M ± SEM (relative amount of AFC) ([1]; 136.5 μg/mouse i.v.): 682.6±33.3
- Amount of antibody-forming cells per spleen, M ± SEM (total AFC amount) ([1]; 136.5 μg/mouse i.v.): 69.6±6.0 × 10^3
- immunostimulating action ([1]; dose of 136.5 μg/mouse): high immunostimulating action
- Immunogenic activity ([1]; doses of 45.5 and 91 μg/mouse): no immunogenic activity
- Amount of hemagglutinins ([2]; 45.5 μg/mouse i.v.): 7.4 ± 0.3 Log2 T
- Effect, % on hemagglutinins ([2]; 45.5 μg/mouse i.v.): +2.8 p >0.05%
- Amount of hemagglutinins ([2]; 91 μg/mouse i.v.): 7.4 ± 0.3 Log2 T
- Effect, % on hemagglutinins ([2]; 91 μg/mouse i.v.): +2.8 p > 0.05%
- Amount of hemagglutinins ([2]; 136.5 μg/mouse i.v.): 7.8 ± 0.3 Log2 T
- Effect, % on hemagglutinins ([2]; 136.5 μg/mouse i.v.): +7.7 p > 0.05%

Compound: CC/C=C\C/C=C\C/C=C\CCCCCCCC(=O)NCCOP(=O)(O)O [Compound 17, N-linolenoyl-o-phospho-2-aminoethanol]
- Amount of antibody-forming cells per 10^6 spleen cells, M ± SEM (relative amount of AFC) ([1]; 45.5 μg/mouse i.v.): 457.3±40.7
- Amount of antibody-forming cells per spleen, M ± SEM (total AFC amount) ([1]; 45.5 μg/mouse i.v.): 51.1±4.4 × 10^3
- Effect, % on AFC per 10^6 spleen cells ([1]; 45.5 μg/mouse i.v.): −3.0 p > 0.05%
- Effect, % on AFC per spleen ([1]; 45.5 μg/mouse i.v.): −7.4 p > 0.05%
- Amount of antibody-forming cells per 10^6 spleen cells, M ± SEM (relative amount of AFC) ([1]; 91 μg/mouse i.v.): 523.8±45.3
- Amount of antibody-forming cells per spleen, M ± SEM (total AFC amount) ([1]; 91 μg/mouse i.v.): 63.5±5.1 × 10^3
- Effect, % on AFC per 10^6 spleen cells ([1]; 91 μg/mouse i.v.): +11.1 p > 0.05%
- Effect, % on AFC per spleen ([1]; 91 μg/mouse i.v.): +15.0 p > 0.05%
- Amount of antibody-forming cells per 10^6 spleen cells, M ± SEM (relative amount of AFC) ([1]; 136.5 μg/mouse i.v.): 619.6±38.9
- Amount of antibody-forming cells per spleen, M ± SEM (total AFC amount) ([1]; 136.5 μg/mouse i.v.): 71.6±4.7 × 10^3
- immunostimulating action ([1]; dose of 136.5 μg/mouse): marked immunostimulating action
- Immunogenic activity ([1]; doses of 45.5 and 91 μg/mouse): no immunogenic activity
- Effect, % on hemagglutinins ([2]; 91 μg/mouse i.v.): +2.6 p > 0.05%
- Effect, % on hemagglutinins ([2]; 136.5 μg/mouse i.v.): +2.6 p > 0.05%

Compound: CC/C=C\C/C=C\C/C=C\CCCCCCCC(=O)N[C@@H](Cc1ccc(OP(=O)(O)O)cc1)C(=O)O [Compound 20, N-linolenoyl-o-phospho-L-tyrosine]
- Amount of antibody-forming cells per 10^6 spleen cells, M ± SEM (relative amount of AFC) ([1]; 45.5 μg/mouse i.v.): 512.8±46.2
- Amount of antibody-forming cells per spleen, M ± SEM (total AFC amount) ([1]; 45.5 μg/mouse i.v.): 46.4±4.8 × 10^3
- Effect, % on AFC per 10^6 spleen cells ([1]; 45.5 μg/mouse i.v.): −9.8 p > 0.05%
- Effect, % on AFC per spleen ([1]; 45.5 μg/mouse i.v.): −7.4 p > 0.05%
- Amount of antibody-forming cells per 10^6 spleen cells, M ± SEM (relative amount of AFC) ([1]; 91 μg/mouse i.v.): 634.5±51.7
- Amount of antibody-forming cells per spleen, M ± SEM (total AFC amount) ([1]; 91 μg/mouse i.v.): 55.7±5.6 × 10^3
- Effect, % on AFC per 10^6 spleen cells ([1]; 91 μg/mouse i.v.): +11.6 p > 0.05%
- Effect, % on AFC per spleen ([1]; 91 μg/mouse i.v.): +11.2 p > 0.05%
- Amount of antibody-forming cells per 10^6 spleen cells, M ± SEM (relative amount of AFC) ([1]; 136.5 μg/mouse i.v.): 845.1±43.1
- Amount of antibody-forming cells per spleen, M ± SEM (total AFC amount) ([1]; 136.5 μg/mouse i.v.): 75.8±7.7 × 10^3
- immunostimulating action ([1]; dose of 136.5 μg/mouse): marked immunostimulating action
- Immunogenic activity ([1]; doses of 45.5 and 91 μg/mouse): no immunogenic activity
- Amount of hemagglutinins ([2]; 45.5 μg/mouse i.v.): 7.4 ± 0.2 Log2 T
- Amount of hemagglutinins ([2]; 91 μg/mouse i.v.): 7.5 ± 0.3 Log2 T
- Effect, % on hemagglutinins ([2]; 91 μg/mouse i.v.): +1.4 p > 0.05%
- Amount of hemagglutinins ([2]; 136.5 μg/mouse i.v.): 7.6 ± 0.4 Log2 T
- Effect, % on hemagglutinins ([2]; 136.5 μg/mouse i.v.): +2.7 p > 0.05%
